A short description of data set [1]: stability of the substance to air, light and temperature (appearance).
The conditions of data set [2]: sufficiently purified trans-(+)-Δ^9-THC; cited from earlier work.
The conditions of data set [3]: delivery by inhalation (e.g., by smoking); cited from earlier work.
For data set [4] the following is noted: purified resinous material, background statement; cited from earlier work.

These results are taken from US20070072939A1, “Cannabinoid active pharmaceutical ingredient for improved dosage forms” (Euro-Celtique, S.A., priority 2005, published 2007).

For “trans-(±)-Δ^9-tetrahydrocannabinol [crystalline trans-(±)-Δ^9-THC]”, the stability result in data set [1] (25° C. in the presence of air and laboratory lighting, Example 12 material) is “stable”. Besides, in data set [1] (25° C., Example 10 material, expected), the “retention of white appearance” value was “retain that white appearance for at least three days”. Further, in data set [1] (held for three days at room temperature in the presence of air and laboratory lighting), the appearance after storage entry is listed as “remained white”.
Consider `CCCCCc1cc(O)c2c(c1)OC(C)(C)[C@H]1CCC(C)=C[C@H]21` [trans-(+)-Δ^9-THC, trans-(+)-Δ^9-tetrahydrocannabinol], for which the “activity relative to the trans-(−)-Δ^9-THC enantiomer” value in data set [2] is reported as ~1%.
On to `CCCCCc1cc(O)c2c(c1)OC(C)(C)[C@@H]1CCC(C)=C[C@@H]21` [trans-(−)-Δ^9-THC, (−)-6a, 10a-trans-Δ^9-tetrahydrocannabinol], for which, in data set [3], the “onset of pharmacological activity” value is recorded as ≤ 10 minutes. In addition, the “chemical stability to light, oxygen and heat” value in data set [4] is “chemically unstable to light, oxygen, and heat”.
